Tests used:
CAL-27 = assay: Inhibition of cell proliferation in human CAL-27 cells at 0.3 uM incubated for 72 hrs by Cell Titer Glo assay relative to control; format: functional
[1] = Plasma protein in mouse assessed as unbound fraction; format: ADME, cell-free
[2] = Volume of distribution at steady state in Sprague-Dawley rat at 1 mg/kg, iv; format: ADME, organism-based; conditions: in vivo, read-out: Vdss
OVCAR-3 = assay: Inhibition of cell proliferation in human OVCAR-3 cells at 0.3 uM incubated for 72 hrs by Cell Titer Glo assay relative to control; format: functional
[3] = Volume of distribution at steady state in CD-1 mouse at 0.5 mg/kg, iv; format: ADME, organism-based; conditions: in vivo, read-out: Vdss
[4] = Intrinsic clearance in Sprague-Dawley rat at 1 mg/kg, iv; format: ADME, organism-based; conditions: in vivo
MCF7 [5] = assay: Antitumor activity against human MCF7 cells xenografted in mouse at 15 mg/kg, po qd for 3 weeks relative to control; format: functional; conditions: MCF7, 504 h, read-out: TGI
[6] = Toxicity in mouse xenografted with human MCF7 cells assessed as drug tolerance at 5 to 15 mg/kg, po for 3 weeks; format: organism-based; conditions: in vivo, 504 h, dose 5-15 mg/kg
[7] = Oral bioavailability in Sprague-Dawley rat at 6 mg/kg; format: ADME, organism-based; conditions: in vivo
BXPC-3 = assay: Inhibition of cell proliferation in human BXPC-3 cells at 0.3 uM incubated for 72 hrs by Cell Titer Glo assay relative to control; format: functional
[8] = Cmax in Sprague-Dawley rat at 6 mg/kg, po; format: ADME, organism-based; conditions: in vivo
[9] = Oral bioavailability in CD-1 mouse at 2 mg/kg; format: ADME, organism-based; conditions: in vivo
SK-MEL-28 = assay: Inhibition of cell proliferation in human SK-MEL-28 cells at 0.3 uM incubated for 72 hrs by Cell Titer Glo assay relative to control; format: functional
A673 = assay: Inhibition of cell proliferation in human A673 cells at 0.3 uM incubated for 72 hrs by Cell Titer Glo assay relative to control; format: functional
MDA-MB-436 [10] = assay: Antiproliferative activity against Rb-deficient human MDA-MB-436 cells assessed as inhibition of cellular viability; format: functional, cell-based
MCF7 [11] = assay: Induction of cell cycle arrest at G1 phase in Rb-proficient human MCF7 cells at 0.16 uM (reference value: 55.9 %); format: functional
[12] = Cmax in CD-1 mouse at 2 mg/kg, po; format: ADME, organism-based; conditions: in vivo
[13] = Oral bioavailability in Beagle dog at 2 mg/kg; format: ADME, organism-based, Canis lupus familiaris; conditions: in vivo
KG-1 = assay: Inhibition of cell proliferation in human KG-1 cells at 0.3 uM incubated for 72 hrs by Cell Titer Glo assay relative to control; format: functional
Cytochrome P450 2D6 = Cytochrome P450 2D6 (Homo sapiens, UniProt P10635); assay: Inhibition of CYP2D6 (unknown origin) using […] as substrate; format: ADME
[14] = Inhibition of cell proliferation in human MINO cells at 0.3 uM incubated for 72 hrs by Cell Titer Glo assay relative to control; format: functional
[15] = AUC (0 to last) in CD-1 mouse at 2 mg/kg, po; format: ADME, organism-based; conditions: in vivo
[16] = Plasma protein in rat assessed as unbound fraction; format: ADME, cell-free
MCF7 [17] = assay: Induction of cell cycle arrest at G2 phase in Rb-proficient human MCF7 cells at 0.16 uM (reference value: 24.74 %); format: functional
[18] = Plasma protein in human assessed as unbound fraction; format: ADME, cell-free
[19] = Plasma protein in dog assessed as unbound fraction; format: ADME, cell-free, Canis lupus familiaris
[20] = Intrinsic clearance in Beagle dog at 0.6 mg/kg, iv; format: ADME, organism-based, Canis lupus familiaris; conditions: in vivo
[21] = Antitumor activity against human PDX ES-06-0130 cells xenografted in mouse at 40 mg/kg, po qd for 3 weeks relative to control; format: functional; conditions: PDX ES-06-0130, 504 h, read-out: TGI
[22] = Intrinsic clearance in CD-1 mouse at 0.5 mg/kg, iv; format: ADME, organism-based; conditions: in vivo
MDA-MB-436 [23] = assay: Induction of cell cycle arrest at G1 phase in Rb-deficient human MDA-MB-436 cells at 0.16 uM (reference value: 47.32 %); format: functional
MCF7 [24] = assay: Antitumor activity against human MCF7 cells xenografted in mouse at 5 mg/kg, po qd for 3 weeks relative to control; format: functional; conditions: MCF7, 504 h, read-out: TGI
[25] = Lipophilicity, logD of compound at pH 7.4 in Octanol buffer; format: physicochemical
MV4-11 = assay: Inhibition of cell proliferation in human MV4-11 cells at 0.3 uM incubated for 72 hrs by Cell Titer Glo assay relative to control; format: functional
[26] = Permeability across basal to apical side in human Caco-2 cells; format: ADME, cell-based; conditions: read-out: permeability
MDA-MB-436 [27] = assay: Induction of cell cycle arrest at S phase in Rb-deficient human MDA-MB-436 cells at 0.16 uM (reference value: 22.47 %); format: functional
Cytochrome P450 1A2 = Cytochrome P450 1A2 (Homo sapiens, UniProt P05177); assay: Inhibition of CYP1A2 (unknown origin) using […] as substrate; format: ADME
[28] = Plasma protein in monkey assessed as unbound fraction; format: ADME, cell-free, Macaca mulatta; conditions: rhesus monkey
Cytochrome P450 3A4 = Cytochrome P450 3A4 (Homo sapiens, UniProt P08684); assay: Inhibition of CYP3A4 (unknown origin) using midazolam as substrate; format: ADME
[29] = Cmax in Beagle dog at 2 mg/kg, po; format: ADME, organism-based, Canis lupus familiaris; conditions: in vivo
SNU1 = assay: Inhibition of cell proliferation in human SNU1 cells at 0.3 uM incubated for 72 hrs by Cell Titer Glo assay relative to control; format: functional

Chain of Cytochrome P450 3A4 (P08684 whole entry): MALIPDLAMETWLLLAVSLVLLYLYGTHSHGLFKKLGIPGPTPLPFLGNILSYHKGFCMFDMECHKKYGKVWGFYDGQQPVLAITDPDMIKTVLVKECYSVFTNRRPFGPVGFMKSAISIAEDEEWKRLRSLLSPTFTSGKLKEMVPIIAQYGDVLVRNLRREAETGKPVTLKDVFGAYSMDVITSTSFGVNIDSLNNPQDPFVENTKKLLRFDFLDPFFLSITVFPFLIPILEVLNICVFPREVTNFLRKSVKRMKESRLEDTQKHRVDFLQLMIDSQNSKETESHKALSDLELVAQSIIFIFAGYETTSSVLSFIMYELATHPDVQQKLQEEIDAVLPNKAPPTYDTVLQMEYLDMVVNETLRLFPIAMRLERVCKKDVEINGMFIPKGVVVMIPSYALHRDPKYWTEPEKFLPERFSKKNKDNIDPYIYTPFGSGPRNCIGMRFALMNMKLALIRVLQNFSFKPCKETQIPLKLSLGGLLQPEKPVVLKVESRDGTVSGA
Chain of Cytochrome P450 2D6 (P10635 whole entry): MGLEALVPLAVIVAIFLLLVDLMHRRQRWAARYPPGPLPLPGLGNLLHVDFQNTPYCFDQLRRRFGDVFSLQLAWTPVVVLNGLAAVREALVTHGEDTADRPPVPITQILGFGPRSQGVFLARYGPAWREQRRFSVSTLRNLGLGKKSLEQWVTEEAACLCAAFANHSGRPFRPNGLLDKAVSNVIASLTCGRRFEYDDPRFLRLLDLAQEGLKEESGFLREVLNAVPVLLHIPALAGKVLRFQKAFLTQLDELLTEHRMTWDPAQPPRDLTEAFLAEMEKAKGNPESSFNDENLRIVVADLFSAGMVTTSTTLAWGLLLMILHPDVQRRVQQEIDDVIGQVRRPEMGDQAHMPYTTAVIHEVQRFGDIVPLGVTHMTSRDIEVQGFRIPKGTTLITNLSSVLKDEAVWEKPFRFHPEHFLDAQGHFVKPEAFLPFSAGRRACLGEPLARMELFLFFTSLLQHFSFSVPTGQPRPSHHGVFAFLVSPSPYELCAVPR
Chain of Cytochrome P450 1A2 (P05177 whole entry): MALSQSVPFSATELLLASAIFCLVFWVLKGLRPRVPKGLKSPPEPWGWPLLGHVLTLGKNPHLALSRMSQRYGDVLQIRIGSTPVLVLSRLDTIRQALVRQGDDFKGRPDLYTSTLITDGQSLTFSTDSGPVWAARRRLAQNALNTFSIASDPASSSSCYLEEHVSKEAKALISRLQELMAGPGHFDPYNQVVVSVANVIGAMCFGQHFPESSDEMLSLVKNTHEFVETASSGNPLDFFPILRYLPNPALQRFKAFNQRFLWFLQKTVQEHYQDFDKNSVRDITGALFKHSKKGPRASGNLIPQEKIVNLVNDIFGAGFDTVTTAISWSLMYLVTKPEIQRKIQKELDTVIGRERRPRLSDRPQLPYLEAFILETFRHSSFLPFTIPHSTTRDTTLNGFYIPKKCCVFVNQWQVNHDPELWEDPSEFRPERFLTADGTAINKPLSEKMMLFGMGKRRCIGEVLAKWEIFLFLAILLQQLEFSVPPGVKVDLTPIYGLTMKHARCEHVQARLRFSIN

Work on `CC(C)c1c2cc(-c3nc(Nc4ccc(N5CCNCC5)cn4)ncc3F)ccc2nn1C` [CULMERCICLIB] yielded an inhibition at 0.3 µM (CAL-27) of 0.6%, a fraction unbound [1] of 0.026 and a Vd [2] of 11 L/kg. It also gave an inhibition at 0.3 µM (OVCAR-3) of 23%, a Vd [3] of 5 L/kg and a CL [4] of 30.4 mL/min/kg. The inhibition in vivo at 15 mg/kg (MCF7 [5]) was 93%, the Activity [6] was “Non-Toxic” and the bioavailability [7] was 74.9%. For the same molecule, the inhibition at 0.3 µM (BXPC-3) was 23.1%, the Cmax [8] was 415 nM and the bioavailability [9] was 65%. The inhibition at 0.3 µM (SK-MEL-28) was 13.7%, the inhibition at 0.3 µM (A673) was -4.1% and the IC50 (MDA-MB-436 [10]) was 0.484 µM. For the same molecule, the Activity (MCF7 [11]) was 68.93%, the Cmax [12] was 248 nM and the bioavailability [13] was 56%. For the same molecule, the inhibition in vivo at 0.3 µM (KG-1) was 61.1%, the IC50 (Cytochrome P450 2D6) was over 50 µM and the inhibition at 0.3 µM [14] was 67%. It also gave an AUC(0-t) [15] of 1.37 µM·h, a fraction unbound [16] of 0.025 and an Activity (MCF7 [17]) of 24.73%. It also gave a fraction unbound [18] of 0.08, a fraction unbound [19] of 0.051 and a CL [20] of 32 mL/min/kg. The inhibition in vivo at 40 mg/kg [21] was 62%, the CL [22] was 31.3 mL/min/kg and the Activity (MDA-MB-436 [23]) was 46.59%. For the same molecule, the inhibition in vivo at 5 mg/kg (MCF7 [24]) was 68%, the logD [25] was 2.4 and the inhibition at 0.3 µM (MV4-11) was 71.1%. The Papp B→A [26] was 3.21 ×10⁻⁶ cm/s, the Activity (MDA-MB-436 [27]) was 26.1% and the IC50 (Cytochrome P450 1A2) was over 50 µM. For the same molecule, the fraction unbound [28] was 0.061, the IC50 (Cytochrome P450 3A4) was over 50 µM and the Cmax [29] was 109 nM. It also gave an inhibition at 0.3 µM (SNU1) of 55.4%.

— ChEMBL document CHEMBL5550128, “Discovery and preclinical evaluations of TQB3616, a novel CDK4-biased inhibitor” (Bioorg Med Chem Lett, 2024)
